Several values for one entry are separate records, joined by “and”; a condition that tells them apart may be missing. Equal entries are not always repeated. Where two headings read alike, the source gives them in different places.

The target in data set [1] is T1, PfKMO (Pseudomonas fluorescens, UniProt Q84HF5, C252S/C461S).
T1 construct: made in house; host or cells: E. coli BL21 (DE3)
Description: Hydrogen peroxide production, o-dianisidine / horseradish peroxidase assay. The data set is classed as biochemical. The following applies: presence and absence of L-Kyn. How it is done: H2O2 production rates from PfKMO inhibitor complexes were performed using a horseradish peroxidase (HRP) assay. NADPH consumption rate was measured in the presence and absence of an excess of KMO inhibitors (400 μM). For determination of H2O2 production rates, PfKMO (0.1 μM) was incubated with 100 μM NADPH, 200 μM L-KYN, 400 μM o-dianisidine and ∼5 units HRP in the presence and absence of excess KMO inhibitors. The rate of oxidation of o-dianisidine by H2O2, catalysed by HRP, was monitored at 440 nm (Δε 440 nm = 11.3 mM^−1 cm^−1). To eliminate the L-Kyn competition binding effect, the H2O2 production rates of KMO inhibitors were also measured without L-Kyn with the same method.

Data set [2] deals with MDR1 MDCK cell lines. The experiment in a line: in vitro. The data set is classed as in vitro ADME, canine. The following applies: MDR1 MDCK; listed as Inhibitor 1.
Data set [3] relates to wild type MDCK cell lines. The experiment in a line: in vitro. The data set is classed as in vitro ADME, canine. The following applies: wild type MDCK; listed as Inhibitor 1.
The target in data set [4] is MDR1 (P-glycoprotein) (Homo sapiens, UniProt P08183). The data set is classed as in vitro ADME. Conditions: from effective efflux ratio. As to the method:
internal standard at each timepoint. […]
including an analytical internal standard.
Apparent permeability (Papp) values were determined from the relationship: […]
Where V is the volume of each Transwell compartment (apical 125 µL, basolateral 600 µL), and concentrations are the relative MS responses for compound (normalized to internal standard) in the donor chamber before incubation and acceptor chamber at the end of the incubation. Area = area of cells exposed for drug transfer (0.33 cm 2).
Efflux ratios (Papp B>A / Papp A>B) were calculated for each compound from the […]
MDR1-MDCK cell line has been engineered to overexpress the efflux transporter, MDR1 (P-glycoprotein), and a finding of good permeability B>A, but poor […]
order to confirm the involvement of MDR1 in any efflux seen, an “ef fective efflux ratio” (EER) was calculated by comparing compound efflux ratios (ER) in the two cell types, i.e. EER = ER (MDR1-MDCK)/ ER (wild-type MDCK). This ratio illustrates the effect of the over-expressed MDR1 normalised for the background movement of compound through the wild-type cells. […]
Compound recovery from the wells was determined from MS responses (normalized to internal standard) in donor and acceptor chambers at the end of incubation compared to response in the donor chamber pre-incubation. […]

The nature of data set [5]: Rat brain penetration study. The format is in vivo, male Han Wistar rats. The following applies: 1b 5 mg/kg i.v.; for In blood, prodrug 1b / In brain, prodrug 1b / Unbound brain, prodrug 1b / concentration at 5 min / concentration at 15 min / concentration at 30 min / concentration at 60 min: single rats; for In brain, prodrug 1b / Unbound brain, prodrug 1b: listed as prodrug 1b; for concentration at 5 min / concentration at 15 min / concentration at 30 min / concentration at 60 min: intravenous, 5 mg free base/kg. How it is done:
Prodrug 1b was dosed as a bolus solution intravenously at 5 mg free base/kg (dose volume: 1 mL/kg; dose vehicle: 10% DMSO; 60% PEG400; 30% MilliQ H2O) to male Han Wistar rats (n = 12). At 5, 15, 30 and 60 min following intravenous bolus injection of prodrug 1b, […] (n = 3/timepoint) were placed under terminal anaesthesia with isofluorane. A blood sample was taken by cardiac puncture, the […] decapitated and the brain removed. Brain weight was noted and each brain homogenised with two volumes of methanol:water (1:1; 2 mL/g brain). Each blood sample was diluted with distilled water (1:2). Diluted blood and the brain homogenates were then stored frozen until preparation and analysis by UPLC-MS/MS, monitoring for prodrug 1b and production of inhibitor 1. For each rat at each timepoint for 1, the concentration in brain (ng/g) was divided by the concentration in blood (ng/mL) to give a brain:blood ratio. The mean value obtained was quoted.
A rapid and sensitive ultra-performance chromatography/tandem mass spectrometry (UPLC-MS/MS) method was developed and validated for the determination of inhibitor 1 and prodrug 1b (rat only). Chromatographic analysis was conducted on a Waters Acquity™ UPLC system. Chromatographic separation was performed with an Acquity™ UPLC BEH C18 column (50 × 2.1 mm, 1.7 µm, 130Å; Waters Corp.) maintained at 40 °C in a column oven. The mobile phase consisted of water with 0.01% formic acid and ACN with 0.01 % formic acid and it was delivered at a flow rate of 0.6 mL/min under gradient eluent conditions within an analysis cycle time of 3 min. The mass detection was conducted on a Waters Xevo™ TQs mass spectrometer equipped with a ScanWave™ technology. Quantitation of the analyte was performed in electrospray positive ionisation mode (ESI^+) using multiple reaction monitoring. The optimised fragmentation transition was m/z = 270.17 → 196.19 (mouse) or m/z = 270.17 → 223.76 (rat) for inhibitor 1 and m/z = 297.83 → 195.74 for prodrug 1b (rat).
Sample extraction for blood and brain homogenate was by protein precipitation (1:3 or 1:6) using ACN containing suitable internal standard. Extracts were vortexed followed by centrifugation (2800 rpm for 10 min). An aliquot of each supernatant was then diluted two-fold in distilled water ready for analysis by UPLC-MS/MS.
The weighted 1/x^2 calibration line was linear in the dynamic range of 1–5000 ng/mL for inhibitor 1 and 1–1000 ng/mL for prodrug 1b with a correlation coefficient (r^2) > 0.99 (inhibitor 1) or 0.98 (prodrug 1b). The quality control samples (QC) were prepared by using the same spiking scheme as the calibration samples and up to four different target concentration brain levels: 2 ng/mL (LQC), 40 ng/mL (MQC), 100 ng/mL (HQC) and 2000 ng/mL. Data collection, peak integration and calculations were performed using MassLynx software, version 2.1.

T1 sequence (Q84HF5 whole entry C252S/C461S): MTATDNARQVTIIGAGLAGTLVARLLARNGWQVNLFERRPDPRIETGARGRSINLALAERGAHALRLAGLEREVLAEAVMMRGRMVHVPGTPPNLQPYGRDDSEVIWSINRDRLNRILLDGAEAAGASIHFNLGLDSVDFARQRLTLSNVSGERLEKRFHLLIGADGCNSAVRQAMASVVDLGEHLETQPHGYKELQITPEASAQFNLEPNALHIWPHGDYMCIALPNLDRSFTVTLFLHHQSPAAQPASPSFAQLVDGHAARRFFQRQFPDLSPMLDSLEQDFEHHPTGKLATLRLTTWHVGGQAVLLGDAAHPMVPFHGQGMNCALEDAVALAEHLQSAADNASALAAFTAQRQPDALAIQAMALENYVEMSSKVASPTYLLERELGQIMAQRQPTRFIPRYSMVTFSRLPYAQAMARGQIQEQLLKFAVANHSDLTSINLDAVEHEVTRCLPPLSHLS
Chain of MDR1 (P-glycoprotein) (P08183 whole entry): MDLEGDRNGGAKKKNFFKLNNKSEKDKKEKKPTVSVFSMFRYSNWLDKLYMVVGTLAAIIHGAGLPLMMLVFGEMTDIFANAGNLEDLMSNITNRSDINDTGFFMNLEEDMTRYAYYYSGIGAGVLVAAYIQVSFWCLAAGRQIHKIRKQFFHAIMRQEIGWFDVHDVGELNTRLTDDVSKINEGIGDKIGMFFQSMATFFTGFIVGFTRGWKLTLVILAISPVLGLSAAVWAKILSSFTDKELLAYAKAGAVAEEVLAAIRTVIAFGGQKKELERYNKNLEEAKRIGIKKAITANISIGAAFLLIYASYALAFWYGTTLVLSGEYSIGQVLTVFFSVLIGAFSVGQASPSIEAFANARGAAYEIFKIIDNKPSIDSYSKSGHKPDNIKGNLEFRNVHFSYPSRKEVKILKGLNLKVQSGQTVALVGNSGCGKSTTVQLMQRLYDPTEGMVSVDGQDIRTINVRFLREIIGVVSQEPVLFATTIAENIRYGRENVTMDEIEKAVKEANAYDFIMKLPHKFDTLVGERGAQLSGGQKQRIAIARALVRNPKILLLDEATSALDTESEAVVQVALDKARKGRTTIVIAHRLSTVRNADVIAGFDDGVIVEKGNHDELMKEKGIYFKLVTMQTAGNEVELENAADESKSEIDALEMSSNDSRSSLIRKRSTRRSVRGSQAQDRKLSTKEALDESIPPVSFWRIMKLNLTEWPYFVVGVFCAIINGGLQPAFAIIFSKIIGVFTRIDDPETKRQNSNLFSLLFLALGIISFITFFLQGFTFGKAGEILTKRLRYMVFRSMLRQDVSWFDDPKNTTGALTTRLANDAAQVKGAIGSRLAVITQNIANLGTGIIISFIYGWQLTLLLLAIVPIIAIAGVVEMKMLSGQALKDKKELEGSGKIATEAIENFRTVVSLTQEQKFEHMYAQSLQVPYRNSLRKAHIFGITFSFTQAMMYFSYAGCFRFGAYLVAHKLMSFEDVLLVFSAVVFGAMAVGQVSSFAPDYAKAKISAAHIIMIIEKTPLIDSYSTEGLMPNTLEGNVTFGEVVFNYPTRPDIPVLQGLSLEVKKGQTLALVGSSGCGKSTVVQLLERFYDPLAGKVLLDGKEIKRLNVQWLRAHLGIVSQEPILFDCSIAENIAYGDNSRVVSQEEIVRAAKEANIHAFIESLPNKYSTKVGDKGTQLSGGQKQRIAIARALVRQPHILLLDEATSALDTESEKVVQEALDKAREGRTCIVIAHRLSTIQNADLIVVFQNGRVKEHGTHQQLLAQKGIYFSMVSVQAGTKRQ

As for `Cc1cc2c(c(C)c1Cl)N(CC(=O)O)C(=O)CO2` [compound 1, (6-chloro-5,7-dimethyl-3-oxo-2,3-dihydro-4H-1,4-benzoxazin-4-yl) acetic acid], the H2O2 production entry in data set [1] is “not detected”. The “Papp A>B Mean” value in data set [2] and in data set [3] was ~ 15 x 10-6 cm/sec each time. Also, in data set [4], the “Substrate for P-glycoprotein” value is recorded as “not a substrate”.
Take `CCOC(=O)CN1C(=O)COc2cc(C)c(Cl)c(C)c21` [1b]: the “In blood, prodrug 1b” value in data set [5] (5 min), in data set [5] (15 min), in data set [5] (30 min) and in data set [5] (60 min) was at most 3 ng/mL throughout. For the same compound, the “In brain, prodrug 1b” value in data set [5] (5 min) is 2623 ng/g and 2264 ng/g; in data set [5] (15 min) it was 715 ng/g and 791 ng/g; in data set [5] (30 min), 203 ng/g. The “Unbound brain, prodrug 1b” value in data set [5] (5 min) is 42 ng/g and 36 ng/g; in data set [5] (15 min), 11 ng/g and 13 ng/g; in data set [5] (30 min), 3 ng/g. For the same compound, the concentration at 5 min in data set [5] (male, Han Wistar, brain (unbound), 5 min, read-out: Unbound brain, prodrug 1b) was 38 ng/g; in data set [5] (male, Han Wistar, brain, 5 min, read-out: In brain, prodrug 1b), 2350 ng/g; in data set [5] (male, Han Wistar, whole blood, 5 min, read-out: In blood, prodrug 1b), at most 3 ng/mL. The concentration at 15 min in data set [5] (male, Han Wistar, brain (unbound), 15 min, read-out: Unbound brain, prodrug 1b) is 13 ng/g; in data set [5] (male, Han Wistar, brain, 15 min, read-out: In brain, prodrug 1b), 829 ng/g; in data set [5] (male, Han Wistar, whole blood, 15 min, read-out: In blood, prodrug 1b), at most 3 ng/mL. Also, the concentration at 30 min in data set [5] (male, Han Wistar, brain (unbound), 30 min, read-out: Unbound brain, prodrug 1b) is 4 ng/g; in data set [5] (male, Han Wistar, brain, 30 min, read-out: In brain, prodrug 1b) it was 240 ng/g; in data set [5] (male, Han Wistar, whole blood, 30 min, read-out: In blood, prodrug 1b), at most 3 ng/mL. Further, the concentration at 60 min in data set [5] (male, Han Wistar, brain, 60 min, read-out: In brain, prodrug 1b) was 62 ng/g; in data set [5] (male, Han Wistar, brain, 60 min, read-out: Unbound brain, prodrug 1b) it was 1 ng/g; in data set [5] (male, Han Wistar, whole blood, 60 min, read-out: In blood, prodrug 1b), at most 3 ng/mL. Further, the Tmax in data set [5] (male, Han Wistar, brain, iv, read-out: Time of maximal concentration of 1b in the brain (converted)) is 5 min.

(Values after publication PMC6656724 (Communications Biology, 2019).)
